Laboratory results as given in US9999603B2, “Compositions and methods including leelamine and arachidonyl trifluoromethyl ketone relating to treatment of cancer” (The Penn State Research Foundation, priority 2013, dated 2018).
pIC50: −log10 of the molar value.

Assays:
Format in all cases: cell-based, human
[1] = system: fibroblast cell line FF2441; assay: MTS cell viability assay, normal fibroblasts FF2441; details: 1-5 μM leelamine in DMSO, 24 hours
Method: (§1) Human fibroblast FF2441 cells and metastatic melanoma cell lines UACC 903 and 1205 Lu were maintained in DMEM (Invitrogen), supplemented with 10% FBS (Hyclone). Cell lines were maintained in a 37° C. humidified 5% CO2 atmosphere incubator and periodically monitored for phenotypic and genotypic characteristics, and for tumorigenic potential.
(§2) Viability of fibroblast and melanoma cells (UACC 903 and 1205 Lu) following treatment with ATK, leelamine, nanolipoATK, and nanolipoATK-999 was measured by MTS assay (Promega, Madison, Wis.). Briefly, 5×10^3 melanoma or fibroblast (FF2441) cells were plated per well in 100 μL of media and grown in 96-well plates for 48 hours. Cells were then treated with ATK alone, leelamine alone, nanolipoATK, nanolipolee, or nanoleelATK-999 for 24 hours before measuring cell viability.
The melanoma cell lines UACC 903 and 1205 Lu, and normal human fibroblast cells FF2441, were treated with 1 μM, 1.5 μM, 2 μM, 2.5 μM, 3 μM, 3.5 μM, 4 μM, 4.5 μM, or 5 μM leelamine in DMSO. Cells were maintained in DMEM supplemented with 10% FBS and L-glutamine. After 24 hours of treatment, an MTS assay was performed to determine the fractional cell viability relative to the DMSO control. IC50 values were calculated using GraphPad Prism software.

UACC 903 melanoma cells = assay: MTS cell viability assay, UACC 903 melanoma cells; details: free drug in DMSO, 24 hours treatment, read-out: half-maximal inhibitory concentration (IC50), cell viability
Method: as §1, §2
(§3) IC50 values were calculated using Prism 4.0 GraphPad Software. Calculsyn software was used to evaluate synergy.
(§4) The melanoma cell lines UACC 903 and 1205 Lu, and normal human fibroblast cells FF2441, were treated with 1 μM, 1.5 μM, 2 μM, 2.5 μM, 3 μM, 3.5 μM, 4 μM, 4.5 μM, or 5 μM leelamine in DMSO. […] IC50 values were calculated using GraphPad Prism software.
(§5) The melanoma cell lines UACC 903 and 1205 Lu were treated with 15 μM, 20 μM, 25 μM, 30 μM, 35 μM, 40 μM, 45 μM, 50 μM, or 55 μM ATK in DMSO. […] IC50 values were calculated using GraphPad Prism software.

1205 Lu melanoma cells = assay: MTS cell viability assay, 1205 Lu melanoma cells; details: free drug in DMSO, 24 hours treatment, read-out: half-maximal inhibitory concentration (IC50), cell viability
Method: as §1, §2, §3, §4, §5

In the case of `CC(C)c1ccc2c(c1)CC[C@H]1[C@](C)(CN)CCC[C@]21C` [leelamine, (1R,4aS,10aR)-1,2,3,4,4a,9,10,10a-octahydro-1-,4a-dimethyl-7-(1-methylethyl)-1-phenanthrenemethanamine], the “killing of normal fibroblast cells” value [1] was “did not kill”, the pIC50 (UACC 903 melanoma cells) was 5.55 and the pIC50 (1205 Lu melanoma cells) was 5.42.
